# According to US20140005070A1, “MARKERS ASSOCIATED WITH CYCLIN-DEPENDENT KINASE INHIBITORS” (Novartis AG, priority 2011, published 2014):
# How the values were obtained:
# [1] = system: PD markers MEPCE, MCL, MYC, HEXIM, LARP7 and WHSC2; test: Affymetrix U133-Plus-2 microarray gene expression profiling of CDKI treated cell lines; type: cell-based; conditions: A375 cells, FIG. 2
# Procedure: Five cell lines were analyzed: NCI-H929, a multiple myeloma cell line (ATCC Cat. # CRL-9068); NCI-H441, a lung papillary adenocarcinoma cell line (ATCC Cat. # HTB-174); A375, a melanoma cell line (ATCC Cat. # CRL-1619); A2058, a melanoma cell line (ATCC Cat. #CRL-1147) and U-87-MG, a glioblastoma cell line (ATCC Cat. #HTB-14). Cell lines were grown in the medium recommended by ATCC and treated as follows:
# NCI-H441 and A375: 0 timepoint: Untreated, harvested when compound is added to the other plates.
# 2 hours: DMSO, 200 nM CKDI(8) or 500 nM CKDI(8) or 500 nM CKDI(7) (3 plates each, total 12 plates).
# 8 hours: DMSO, 200 nM CKDI(8) or 500 nM CKDI (8) or 500 nM CKDI(7) (3 plates each, total 12 plates).
# 16 hours: DMSO, 200 nM CKDI(8) or 500 nM CKDI(8) or 500 nM CKDI(7) (3 plates each, total 12 plates). […]
# An average expression level was determined for each probeset at each time-point and treatment condition by computing the geomean expression level across replicate tumors. […] The p-value was determined by a two-tailed t-test assuming unequal variances (Satterwaithe's approximation). […]
# This is shown in FIG. 2, where A375 cells that are sensitive to CDKI were treated with CDKI(7) and the reduction of gene expression was determined at 2, 8 and 16 hours of treatment.
# [2] = system: MCL1; test: Dog toxicology study, TaqMan mRNA in white blood cells after CDKI(7): MCL1; type: in vivo
# Procedure: (§1) As part of a dog toxicology study, CDKI(7) was administered to dogs. White blood cells were harvested and MEPCE, MYC and MCL1 gene expression was assessed as PD markers. mRNA levels of each of these PD markers were measured by TaqMan® at various time points after CDKI(7) treatment.
# (§2) The study had three groups of three dogs each. Dogs in Group 1 (#101, #102, and #103) were treated with CDKI(7) at 0.5 mg/kg, dogs in Group 2 (#104, #105, and #106) were treated at 1 mg/kg CDKI(7) and dogs in Group 3 (#107, #108, and #109) were treated at 2 mg/kg CDKI(7). Samples were collected before treatment (0 hour), 3 hours, 7 hours and 24 hours after treatment for a total of 12 samples per group. Blood samples were received frozen in QIAGEN RNA protect® Animal Blood tubes (Cat. # 76554 QIAGEN-Valencia, Calif., USA). RNA samples were extracted using the QIAGEN RNeasy® Protect Animal Blood kit (Cat. # 73224). RNA samples were quantified using the RNA Quant-iT RNA® assay from Invitrogen (Cat. # Q32852 Invitrogen—Grand Island, N.Y., USA) and read on an Invitrogen Qubit fluorometer® (Cat. # Q32857). First strand cDNA synthesis was performed on 500 ng of RNA in a reaction volume of 20 μl using a High Capacity cDNA Reverse Transcription Kit® from Applied Biosystems (Cat. # 4368814 Applied Biosystems, Carlsbad, Calif., USA). The cDNA samples were then diluted to obtain a 10 ng cDNA input for the TaqMan® reaction. TaqMan® reactions were run in triplicates using a TaqMan® Gene Expression Master Mix from Applied Biosystems (Cat. # 4369016) on an ABI 7500® machine. The 18S rRNA level was used as an endogenous control for variations in cDNA input. The relative quantification method was used to analyze the data; this method uses one sample as a calibrator sample and express mRNA levels relative to that sample. The results were expressed as RQ values (Relative Quantification) with RQ Min and RQ Max values determining a 95% confidence interval for the real RQ value. The samples were grouped according to the dose and each group was treated as a separate experiment with one of the pre-dose samples used as a calibrator sample. The logarithm of the RQ values are plotted so that increases or decreases from the initial value can be more easily represented; on a logarithmic scale: a 10-fold increase or 10-fold decrease in RQ value are represented as +1 and −1 respectively.
# The MCL1 gene encodes a pro-survival factor that is often amplified in cancer and we have previously shown that its mRNA is short-lived and sensitive to CDK9 inhibition (see FIG. 2). The mRNA levels were determined by TaqMan® using the relative quantification method. The calibrator samples are dog #101 at 0 hour timepoint for the 0.5 mg/kg dose of CDKI(7), dog #104 at 0 hour timepoint for the 1 mg/kg dose and dog #107 at 0 hour timepoint for the 2 mg/kg dose. The logarithm (base 10) of the RQ values is plotted with the error bars representing the 95% confidence interval.
# [3] = system: MYC; test: Dog toxicology study, TaqMan mRNA in white blood cells after CDKI(7): MYC; type: in vivo
# Procedure: as §1, §2
# The MYC transcription factor is a known oncogene and previous Examples have shown that its mRNA is short-lived and sensitive to CDK9 inhibition (see FIG. 2). The MYC mRNA levels were determined by TaqMan® using the relative quantification method. The calibrator samples are dog #101 at 0 hour timepoint for the 0.5 mg/kg dose of CDKI(7), dog #104 at 0 hour timepoint for the 1 mg/kg CDKI(7) dose and dog #107 at 0 hour timepoint for the 2 mg/kg CDKI(7) dose. The logarithm (base 10) of the RQ values is plotted with the error bars representing the 95% confidence interval.
# [4] = 2 mg/kg, at 3 hours, all three dogs
smiles,measurement,setting,value
O=C(Nc1cc(-c2cccc(NCC3CCOCC3)n2)c(Cl)cn1)[C@@H]1CCCNC1 [CDKI(7)],"expression of the PD markers MEPCE, MCL, MYC, HEXIM, LARP7 and WHSC2","[1]; microarray, 2, 8 and 16 hours of treatment",reduced
same,time point of greatest amount of reduction of MEPCE expression,[1]; microarray,8 h
same,MCL1 mRNA regulation,[2]; 0.5 mg/kg,no significant down regulation
same,increase of MCL1 mRNA,"[2]; 1 mg/kg, 7 hour time point, two out of three dogs",2 fold
same,MCL1 down regulation at 7 hours,"[2]; 2 mg/kg, 7 hours",not at 7 hours
same,MCL1 mRNA regulation,"[2]; 2 mg/kg, FIG. 8",consistent down regulation
same,maximum down regulation of MCL1 mRNA,[2]; [4],2.7 fold
same,MYC mRNA regulation,[3]; 0.5 mg/kg,no significant down regulation
same,increase of MYC mRNA,"[3]; 1 mg/kg, 3 or 7 hour time points",2 fold
same,MYC mRNA regulation,"[3]; 2 mg/kg, FIG. 7",consistent down regulation
same,maximum down regulation of MYC mRNA,[3]; [4],3.8 fold
same,dogs showing MYC down regulation,"[3]; 2 mg/kg, at 7 hours",2 out of three
same,MYC mRNA levels by 24 hours,"[3]; all doses, 24 hours",trended back to pre-treatment levels
